Test results taken from article PMC6340882, “Targeting protein kinase CK2 and CDK4/6 pathways with a multi-kinase inhibitor ON108110 suppresses pro-survival signaling and growth in mantle cell lymphoma and T-acute lymphoblastic leukemia” (Oncotarget, 2018).

Tests used:
Granta-519 cells = experiment: Caspase Glo 3/7 caspase activation assay; assay type: cell-based, human; conditions: increasing concentrations, 24 hours
Protocol: Figure 5 Modulation of cell cycle expression and induction of apoptosis in ON 108110-treated MCL and T-ALL cell lines (A) CEM and Granta-519 cells were treated with either DMSO or increasing concentrations of ON108110 (0.5-2.0μM) for 24 hours. Cell cycle analysis was performed using propidium iodide staining. (B) CEM, HBL-2, RS4-11 and Granta-519 cells were treated with either DMSO (vehicle) or increasing concentrations of ON108110 (0.5-2.0 μM) for 24 hours and stained with Annexin V/DAPI (C) Graphical representation of apoptosis induced as shown in B. (D) Granta-519 cells were treated with increasing concentrations of ON108110 for 24 hours. Caspase activation and viability were measured using the Caspase Glo 3/7 and Cell Titer Blue assay kits, respectively. TEXT PRINTED IN THE PICTURE: (B) DMSO: 1.31; 2.34; 94.5; 1.65 | (B) ON108110: 2.21 (0.5μM); 4.32 (0.5μM); 91.1 (0.5μM); 2.37 (0.5μM); 1.64 (1.0μM); 15 (1.0μM); 80.8 (1.0μM); 2.62 (1.0μM); 4.83 (2.0μM); 60.7 (2.0μM); 28.9 (2.0μM); 5.58 (2.0μM) DOUBTS OF THE COPYIST ABOUT THIS PICTURE: Panel B: the quadrant numbers in the Annexin V/DAPI plots have no printed measure or unit. […]
Caspase-3/7 activation was measured using the Caspase-Glo® 3/7 kit as recommended by the manufacturer (Promega).

[1] = tested on: phospho-PTEN Ser380 and AKT Ser129 in CEM and Granta-519 cells; experiment: Western blot of CK2-mediated PTEN and AKT phosphorylation; assay type: cell-based, human; conditions: CEM and Granta-519, 24 hours
Protocol: Figure 6 Inhibition of CK2/CDK4 mediated signaling by ON108110 (A) CEM and (B) Granta-519 cells were treated with increasing concentrations of ON 108110 for 24 hours. Whole cell extracts were subjected to western blot analysis using antibodies directed against the indicated proteins. GAPDH is shown as a loading control.
Cells were grown as indicated, lysed in lysis buffer (20mM Tris, pH 8.0/ 137mM NaCl/ 10% glycerol/ 1% NP-40) supplemented with 1X protease and phosphatase inhibitor cocktail on ice and resolved by SDS-PAGE. The proteins were transferred to a nitrocellulose membrane and subjected to Western blot analysis using the indicated antibodies. Proteins were visualized using an Odyssey imaging system (LI-COR Biosciences).

MOLT-4 = experiment: Growth inhibition (GI50), Cell Titer Blue; assay type: cell-based; conditions: Homo sapiens; MOLT-4, Acute Lymphoblastic Leukemia; 96 hrs post-treatment
Protocol: (§1) Cell lines were cultured in RPMI-1640 medium (Thermo Scientific) supplemented with 10% heat inactivated FBS and penicillin-streptomycin at 37°C under humidified conditions and 5% CO2. All cell lines tested negative for mycoplasma. […] Compounds were added 24 hrs post-plating at the indicated concentrations. Cell counts were determined from duplicate wells 96 hrs post-treatment using the Cell Titer Blue assay in conjunction with the GloMax plate reader (Promega).

GRANTA-519 = experiment: Growth inhibition (GI50), Cell Titer Blue; assay type: cell-based; conditions: Homo sapiens; GRANTA-519, Mantle Cell Lymphoma; 96 hrs post-treatment
Protocol: as §1

CEM = experiment: Growth inhibition (GI50), Cell Titer Blue; assay type: cell-based; conditions: Homo sapiens, CCRF-CEM, Acute Lymphoblastic Leukemia, 96 hrs post-treatment
Protocol: as §1

Z138C = experiment: Growth inhibition (GI50), Cell Titer Blue; assay type: cell-based; conditions: Homo sapiens, Mantle Cell Lymphoma, 96 hrs post-treatment
Protocol: as §1

JVM2 = experiment: Growth inhibition (GI50), Cell Titer Blue; assay type: cell-based; conditions: Homo sapiens, JVM-2; JVM2, Mantle Cell Lymphoma; 96 hrs post-treatment
Protocol: as §1

AsPc1 = experiment: Growth inhibition (GI50), Cell Titer Blue; assay type: cell-based; conditions: Homo sapiens; AsPc1, Pancreatic Cancer; 96 hrs post-treatment
Protocol: as §1

MCF-7 = experiment: Growth inhibition (GI50), Cell Titer Blue; assay type: cell-based; conditions: Homo sapiens, MCF7; MCF-7, Breast Cancer; 96 hrs post-treatment
Protocol: as §1

HEL = experiment: Growth inhibition (GI50), Cell Titer Blue; assay type: cell-based; conditions: Homo sapiens, Erythroleukemia, 96 hrs post-treatment
Protocol: as §1

22Rv1 = experiment: Growth inhibition (GI50), Cell Titer Blue; assay type: cell-based; conditions: Homo sapiens; 22Rv1, Prostate Cancer; 96 hrs post-treatment
Protocol: as §1

In the case of `CC(=O)Oc1ccc(/C=C2\Sc3ccc(F)cc3NC2=O)cc1[N+](=O)[O-]` [ON108110], the “Caspase activity and PARP cleavage” value (Granta-519 cells) is reported as “increased as a function of cell death”, the “level of AKT Ser129” value [1] is reported as “reduction” and the “level of phospho-PTEN Ser380” value [1] is reported as “lower levels”. For the same molecule, the GI50 (MOLT-4) was 0.5 µM, the GI50 (GRANTA-519) was 0.15 µM and the GI50 (CEM) was 0.18 µM. It also gave a GI50 (Z138C) of 0.6 µM, a GI50 (JVM2) of 0.3 µM and a GI50 (AsPc1) of 2.8 µM. The GI50 (MCF-7) was 0.8 µM, the GI50 (HEL) was 0.9 µM and the GI50 (22Rv1) was greater than 5 µM.
